Here are results for 5 compounds from patent US6723754B2, “Use of COMT inhibitors as analgesics” (Orion Corporation, priority 2000, dated 2004).

The subject of experiment [1] is formation of prostaglandins. The conditions noted are these: Aho and Linden, Scand.J.Gastroenterol. 1992; cited from earlier work.
Experiment [2] concerns acetic acid induced writhing in mice. The experiment in a line: Acetic acid-induced writhing in mice. The format is in vivo. As to conditions: mouse. The protocol:
(§1) There are several methods for testing analgesic drugs experimentally. […] The inflammation is induced in the rat hind paw by yeast suspension and the pain threshold of the paw is measured. […] In these tests, both the NSAIDs and opioid analgesics are known to be effective. The hot plate test in mice is a test in which only opioid analgesics are effective.
Acetic acid induced writhing test is a widely used screening method for analgesic agents. […] Writing movements were elicited in mice by an i.p. injection of 1% acetic acid in the volume of 0.1 ml/10 g. The mice were placed in individual glass containers for observation. The number of writhes was counted during a period of 20 minutes and recorded every 5 minutes. The test compounds were given 5-60 minutes before the acetic acid.
(Writhing tests count abdominal constrictions after an irritant is injected.)

Experiment [3] concerns inflamed paw in rats. Description: Modified Randall-Selitto test (yeast-inflamed hind paw pain threshold). As to conditions: rat, one hour before measurement, % of control value. The experiment is classed as in vivo. On the procedure:
as §1
The effect on inflammatory pain was measured using a modified Randall-Selitto test. 0.1 ml of 20% Brewer's yeast suspension was injected subplantary to the right hind paw of rats under ether anaesthesia to elicit inflammation in the paw. After 3 hours the degree of hyperalgesia was determined with an analgesy-meter by applying a force of increasing magnitude to the inflamed paw with a cone-shaped teflon pusher. The force at which the animals begins to struggle was assumed to represent the pain threshold. The drugs were administered orally 5 ml/kg one hour before the measurement. The increase in pain threshold was calculated as a percentage of the control value.

Marks after values point to notes of the source that are not given here.

With `CC(=O)C(=Cc1cc(O)c(O)c([N+](=O)[O-])c1)C(C)=O` [Nitecapone, 3-(3,4-dihydroxy-5-nitrophenyl)methylene-2,4-pentanedione], the “Effect on formation of prostaglandins” value in experiment [1] is “stimulate the formation of prostaglandins”. Further, the “Inhibition of writhing (%)” value in experiment [2] (30 mg/kg i.p.) is on record as 37* %; in experiment [2] (50 mg/kg p.o.), 15* %; in experiment [2] (100 mg/kg i.p.), 76* %; in experiment [2] (100 mg/kg p.o.), 21** %. The “Increase in pain threshold (%)” value is 13% in experiment [3] (0.5 mg/kg p.o.), 58* % in experiment [3] (1 mg/kg p.o.), 46* % in experiment [3] (3 mg/kg p.o.) and 45* % in experiment [3] (10 mg/kg p.o.).

With `COc1ccc2c(c1)c(CC(=O)O)c(C)n2C(=O)c1ccc(Cl)cc1` [Indomethacin, indomethacin], the entries for the “Inhibition of writhing (%)” value in experiment [2] (1 mg/kg i.p.), in experiment [2] (2 mg/kg p.o.) and in experiment [2] (6 mg/kg p.o.) were 38* %, 18* % and 42** %, respectively. In experiment [3] (1 mg/kg p.o.), the “Increase in pain threshold (%)” value was 54* %.

For `CC(=O)c1cc(O)c(O)c([N+](=O)[O-])c1` [3′,4′-dihydroxy-5′-nitroacetophenone], the “Inhibition of writhing (%)” value in experiment [2] (50 mg/kg p.o.) is listed as 28** %; in experiment [2] (100 mg/kg p.o.), 43** %. The results for the “Increase in pain threshold (%)” value in experiment [3] (3 mg/kg p.o.), in experiment [3] (10 mg/kg p.o.) and in experiment [3] (30 mg/kg p.o.) were 45%, 68** % and 62* %, respectively.

Take `O=[N+]([O-])c1cc(O)c(O)c([N+](=O)[O-])c1` [3,5-dinitrocatechol]: the “Inhibition of writhing (%)” value in experiment [2] (50 mg/kg p.o.) is recorded as 36** %; in experiment [2] (100 mg/kg p.o.) it was 22** %. For the same compound, the “Increase in pain threshold (%)” value in experiment [3] (1 mg/kg p.o.) is 49* %; in experiment [3] (3 mg/kg p.o.), 49* %; in experiment [3] (30 mg/kg p.o.) it was 65* %.

Take `CCN(CC)C(=O)/C(C#N)=C/c1cc(O)c(O)c([N+](=O)[O-])c1` [Entacapone, (E)-2-cyano-3-(3,4-dihydroxy-5-nitrophenyl)-N,N-diethyl-2-propenamide]: the “Inhibition of writhing (%)” value is reported as 14% in experiment [2] (3 mg/kg i.v.), 38* % in experiment [2] (10 mg/kg i.v.) and 24% in experiment [2] (100 mg/kg p.o.). The “Increase in pain threshold (%)” value in experiment [3] (10 mg/kg p.o.) is given as 62%; in experiment [3] (30 mg/kg p.o.), 64%.
